“And” between values parts separate entries of the source, which are not always exact repeats. Equal entries are not always repeated. Inconclusive results and toxic doses are left out. Residues, ends and D or L forms follow the SMILES beside them.

For the assay, the system named is BDF1 mice, P388 leukemia ip, median survival T/C. In words: NCI In Vivo Anticancer Drug Screen. Data for tumor model P388 Leukemia (intraperitoneal) in B6D2F1 (BDF1) mice. The conditions noted are these: endpoint: median survival time, higher = longer survival. In a few lines:
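Read-out is survival of treated animals expressed relative to the vehicle group, as a T/C ratio.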

Where [1] appears, read: dose: 25.0 mg/kg/injection, schedule: Q01DX009 (ip), vehicle: saline.
Setting [2] is: dose: 50.0 mg/kg/injection, schedule: Q01DX009 (ip), vehicle: saline.
The mark [3] stands for this setting: dose: 100.0 mg/kg/injection, schedule: Q01DX009 (ip), vehicle: saline with Tween-80.
Setting [4] is: dose: 100.0 mg/kg/injection, schedule: Q01DX009 (ip), vehicle: saline.
The mark [5] stands for this setting: dose: 200.0 mg/kg/injection, schedule: Q01DX009 (ip), vehicle: saline.
The mark [6] stands for this setting: dose: 400.0 mg/kg/injection, schedule: Q01DX009 (ip), vehicle: saline.

On to `CC(=O)OC1CC2(O)C(CCC3(C)C(c4ccc(=O)oc4)CCC32O)C2(C)C1=CC(O)C1OC12` (configuration not stated), for which the T/C is 105 % of control (dose: 0.05 mg/kg/injection, schedule: Q01DX010 (ip), vehicle: carboxymethylcellulose (CMC)); 95 % of control (dose: 0.1 mg/kg/injection, schedule: Q01DX010 (ip), vehicle: carboxymethylcellulose (CMC)); 105 % of control (dose: 0.2 mg/kg/injection, schedule: Q01DX010 (ip), vehicle: carboxymethylcellulose (CMC)); 90 % of control (dose: 0.5 mg/kg/injection, schedule: Q01DX010 (ip), vehicle: carboxymethylcellulose (CMC)).

Regarding `CC(=O)CC(C)(C)N`, the T/C runs as follows: under setting [1], 95 % of control; under setting [2], 104 % of control.

As for `C(#CCN1CCCC1)CCCN1CCCC1`, the T/C (dose: 25.0 mg/kg/injection, schedule: Q01DX009 (ip), vehicle: saline with Tween-80) was 111 % of control; the T/C (dose: 50.0 mg/kg/injection, schedule: Q01DX009 (ip), vehicle: saline with Tween-80) is 92 % of control; the T/C (dose: 50.0 mg/kg/injection, schedule: Q04DX003 (ip), vehicle: saline with Tween-80) is 91 % of control; the T/C under setting [3] was 92 % of control; the T/C (dose: 100.0 mg/kg/injection, schedule: Q04DX003 (ip), vehicle: saline with Tween-80) was 91 % of control.

With `CC(CCCSC(=N)N)SC(=N)N` (configuration not stated), the T/C was 103 % of control (dose: 12.5 mg/kg/injection, schedule: Q01DX009 (ip), vehicle: saline); 96 % of control and 105 % of control under setting [1]; 97 % of control and 122 % of control under setting [2]; 102 % of control and 103 % of control under setting [4].

Consider `CC1CN1P(=S)(Oc1ccccc1)N1CC1C` (configuration not stated), for which the T/C is 150 % of control (dose: 200.0 mg/kg/injection, schedule: Q01DX009 (ip), vehicle: saline with Tween-80); 122 % of control (dose: 264.0 mg/kg/injection, schedule: Q01DX009 (ip), vehicle: saline with Tween-80); 155 % of control (dose: 300.0 mg/kg/injection, schedule: Q01DX009 (ip), vehicle: saline with Tween-80); 150 % of control (dose: 400.0 mg/kg/injection, schedule: Q01DX009 (ip), vehicle: saline with Tween-80).

As for `Cc1ccc(NCCN2CCOCC2)c2c(=O)c3ccccc3sc12`, the T/C is 90 % of control under setting [4]; 110 % of control (dose: 100.0 mg/kg/injection, schedule: Q04DX003 (ip), vehicle: saline); 109 % of control under setting [5]; 110 % of control (dose: 200.0 mg/kg/injection, schedule: Q04DX003 (ip), vehicle: saline); 122 % of control under setting [6]; 110 % of control (dose: 400.0 mg/kg/injection, schedule: Q04DX003 (ip), vehicle: saline).

Take `Nc1ncnc2c1cnn2Cc1ccc(Cl)cc1`: the T/C is, setting by setting: (dose: 12.5 mg/kg/injection, schedule: Q04DX003 (ip), vehicle: Klucel (hydroxypropylcellulose) (HPC)) 118 % of control; (dose: 16.5 mg/kg/injection, schedule: Q04DX003 (ip), vehicle: Klucel (hydroxypropylcellulose) (HPC)) 91 % of control and 100 % of control; (dose: 25.0 mg/kg/injection, schedule: Q01DX009 (ip), vehicle: Klucel (hydroxypropylcellulose) (HPC)) 90 % of control; (dose: 25.0 mg/kg/injection, schedule: Q04DX003 (ip), vehicle: Klucel (hydroxypropylcellulose) (HPC)) 91 % of control and 100 % of control; (dose: 37.5 mg/kg/injection, schedule: Q04DX003 (ip), vehicle: Klucel (hydroxypropylcellulose) (HPC)) 95 % of control; (dose: 50.0 mg/kg/injection, schedule: Q01DX009 (ip), vehicle: Klucel (hydroxypropylcellulose) (HPC)) 95 % of control. Further, the T/C (dose: 50.0 mg/kg/injection, schedule: Q04DX003 (ip), vehicle: Klucel (hydroxypropylcellulose) (HPC)) was 104 % of control.

Regarding `CCCCN(S(=O)(=O)C(F)(F)F)S(=O)(=O)C(F)(F)F`, the T/C is 91 % of control under setting [4], 91 % of control under setting [5] and 100 % of control under setting [6].

With `O=C(O)c1ccccc1C(=O)OC1=CS(=O)(=O)CC1`, the T/C (dose: 50.0 mg/kg/injection, schedule: Q01DX001 (ip), vehicle: saline with Tween-80) is 93 % of control; the T/C (dose: 100.0 mg/kg/injection, schedule: Q01DX001 (ip), vehicle: saline with Tween-80) was 96 % of control; the T/C (dose: 200.0 mg/kg/injection, schedule: Q01DX001 (ip), vehicle: saline with Tween-80) is 97 % of control; the T/C (dose: 400.0 mg/kg/injection, schedule: Q01DX001 (ip), vehicle: saline with Tween-80) was 110 % of control.

In the case of `CCOC(=O)C(c1cccc(OC)c1)C1(C(=O)OCC)CC2(CCC1=O)OCCO2` (configuration not stated), the T/C by setting is: (dose: 50.0 mg/kg/injection, schedule: Q01DX001 (ip), vehicle: saline sonified) 104 % of control; (dose: 100.0 mg/kg/injection, schedule: Q01DX001 (ip), vehicle: saline sonified) 100 % of control; (dose: 200.0 mg/kg/injection, schedule: Q01DX001 (ip), vehicle: saline sonified) 100 % of control.

Turning to `CC(=O)N1c2ccccc2Sc2ccc3ccc(C(=O)CCl)cc3c21`, under setting [3], the T/C was 153 % of control.

`CC(=O)NC(Cc1ccccc1)C(=O)NC(CCCN=C(N)N)C(=O)O` (stereo not drawn) (Ac-Phe-Arg-OH; configuration not given here): the T/C is, setting by setting: (dose: 50.0 mg/kg/injection, schedule: Q01DX005 (ip), vehicle: saline) 108 % of control; (dose: 100.0 mg/kg/injection, schedule: Q01DX005 (ip), vehicle: saline) 115 % of control; (dose: 200.0 mg/kg/injection, schedule: Q01DX005 (ip), vehicle: saline) 105 % of control.

For `CCOc1ccc(N2CC(=O)N3CCCN3C(=O)C2)cc1`, the T/C (dose: 100.0 mg/kg/injection, schedule: Q01DX005 (ip), vehicle: saline with Tween-80) was 88 % of control.

Turning to `CC(CN)OCc1ccccc1` (configuration not stated), the T/C (dose: 12.5 mg/kg/injection, schedule: Q04DX003 (ip), vehicle: saline) is 100 % of control and the T/C (dose: 50.0 mg/kg/injection, schedule: Q04DX003 (ip), vehicle: saline) is 100 % of control.

Turning to `COc1cc2c(cc1OC)-c1c(C)c3ccc(OC)c(NCCN)c3c[n+]1CC2`, the T/C is 100 % of control (dose: 3.12 mg/kg/injection, schedule: Q01DX005 (ip), vehicle: water); 101 % of control (dose: 3.13 mg/kg/injection, schedule: Q04DX003 (ip), vehicle: water); 97 % of control (dose: 6.25 mg/kg/injection, schedule: Q01DX005 (ip), vehicle: water); 108 % of control (dose: 6.25 mg/kg/injection, schedule: Q04DX003 (ip), vehicle: water); 100 % of control (dose: 12.5 mg/kg/injection, schedule: Q01DX005 (ip), vehicle: water); 110 % of control (dose: 12.5 mg/kg/injection, schedule: Q04DX003 (ip), vehicle: water). Also, the T/C is 98 % of control (dose: 25.0 mg/kg/injection, schedule: Q01DX005 (ip), vehicle: water); 98 % of control and 120 % of control (dose: 25.0 mg/kg/injection, schedule: Q04DX003 (ip), vehicle: water).

Turning to `CCC1(c2ccccc2)NC(=O)N(C)C1=O` (configuration not stated), the T/C was 100 % of control (dose: 100.0 mg/kg/injection, schedule: Q01DX009 (ip), vehicle: Klucel (hydroxypropylcellulose) (HPC)); 104 % of control (dose: 100.0 mg/kg/injection, schedule: Q04DX003 (ip), vehicle: Klucel (hydroxypropylcellulose) (HPC)); 100 % of control (dose: 200.0 mg/kg/injection, schedule: Q01DX009 (ip), vehicle: Klucel (hydroxypropylcellulose) (HPC)); 95 % of control (dose: 200.0 mg/kg/injection, schedule: Q04DX003 (ip), vehicle: Klucel (hydroxypropylcellulose) (HPC)); 95 % of control (dose: 400.0 mg/kg/injection, schedule: Q04DX003 (ip), vehicle: Klucel (hydroxypropylcellulose) (HPC)).

Values taken from PubChem BioAssay AID328 (DTP/NCI, 2004).
